Assay results from PMC9479156 (Frontiers in Pharmacology, 2022).
Where two headings read alike, the source gives them in different places.

Experiments:
[1] = system: asexual blood stage P. falciparum NF54 (drug sensitive); assay: SYBR Green I proliferation assay, asexual blood stage Pf NF54; assay type: cell-based; settings: Plasmodium falciparum, read-out: IC50 NF54
Procedure: In vitro cultivation of asexual and gametocyte P. falciparum parasites: P. falciparum asexual blood stage parasites were cultivated in human erythrocytes in RPMI-1640 media supplemented with AlbuMax II under sterile conditions and in a hypoxic environment (90% N2, 5% CO2, and 5% O2) at 37°C as described previously ([Coertzen et al., 2018]; [Wong et al., 2019]). Gametocytes were produced from asexual blood stage parasites in a stage-specific manner through induction of cellular stress as described previously ([Reader et al., 2015]; [Coertzen et al., 2018]; [Wong et al., 2019]; [Reader et al., 2022]).
DHA, artesunate, artemether, chloroquine (CQ), and methylene blue (MB) were used as reference drugs. All assay conditions are as previously described ([Coertzen et al., 2018]; [Wong et al., 2019]). […] Dose-responses were determined using a 2-fold serial drug dilution on in vitro 95% ring-stage intraerythrocytic Pf parasites (1% parasitemia, 1% hematocrit) at 37°C under 90% N2, 5% CO2, and 5% O2 atmospheric conditions, detecting SYBR green I fluorescence as a marker for parasite proliferation following a 96 h drug treatment ([Smilkstein et al., 2004]; [Verlinden et al., 2011]). Activity against the Pf drug-sensitive NF54 strain and the multi drug-resistant K1 (resistant to CQ, quinine, pyrimethamine, and cycloguanil), and W2 (resistant to CQ, quinine, pyrimethamine, and cycloguanil) strains was evaluated. […] Data analysis was performed using GraphPad Prism (version 6) software, intra-assay variability was monitored with Z-factors, and acceptable inter-assay reproducibility was determined from the percent coefficient of variation (CV) ([Reader et al., 2015]). […]
Activity was determined using the SYBR Green I based fluorescence assay on asexual blood stages of the NF54 (drug sensitive), K1 and W2 (drug resistant) strains of P. falciparum. […] Also included in Table 1 for direct comparison of activities against celastrol are data for the internal reference standards MB and artemisone recorded at the same time as for celastrol. […]

[2] = system: asexual blood stage Pf NF54; assay: Fixed-ratio isobole drug combination assay (SYBR Green I); assay type: cell-based, Plasmodium falciparum
Procedure: The in vitro interactions of celastrol with artemisone and MB was determined using a fixed-ratio isobole analysis on Pf NF54 asexual parasites (SYBR Green I-based fluorescence). […] The fractional inhibitory concentration (FIC) for each drug in the combination was calculated as follows:
FIC = IC50 of drug A in combination with drug B/IC50 of drug A
The paired FIC values for the drugs in each combination were linearly plotted to provide the isobologram. The ΣFIC of FIC of drug A in combination with FIC of drug B was determined by calculating the mean FIC value, to obtain the representative FIC value for the drug combination. Data obtained were analysed in Excel, and sigmoidal dose-response curves and isobolograms were plotted using GraphPad 6.0. Experiments were performed in triplicate, and repeated 3 times.
As previously recorded for each of artemiside and artemisone in combination with MB ([Coertzen et al., 2018]), drug-drug interactions were monitored through evaluation of fractional inhibitory concentration (FIC) as determined by isobolograms. A mean ΣFIC<1.0 represents a synergistic interaction, >1.3 an antagonistic interaction and ΣFIC = 1 an indifferent or additive interaction. Isobologram analysis of the combinations of each of artemisone and MB in combination with celastrol was performed against the asexual stages of Pf NF54 using the SYBR Green I based assay. In Table 3 are shown the calculated FIC values for the independent combinations at each ratio as well as the ∑FIC values for each combination. In Figure 5 are presented the independent isoboles for each drug combination.

[3] = system: A549 human lung carcinoma; assay: MTT cytotoxicity assay A549; assay type: cell-based; settings: for SI, selectivity index IC50 normal cell line/IC50 tumour cell line: BEAS-2B/A549; for IC50: Homo sapiens, read-out: IC50 A549
Procedure: (§1) Proliferative and non-proliferative mammalian cell lines: human liver and lung cancer cell lines HepG2 and A549, and immortalized normal liver LO2 and lung BEAS-2B cells were purchased from ATCC (Manassas, VA, United States). Cells were cultured in RPMI-1640 medium supplemented with 10% fetal bovine serum and antibiotics penicillin (50 U/mL) and streptomycin (50 μg/ml; Invitrogen, United Kingdom). All cells were incubated at 37°C in a 5% humidified CO2 incubator.
(§2) All test compounds were dissolved in DMSO at a final concentration of 50 mM and stored at −20°C before use. Cytotoxicity was assessed with A549, HepG2, BEAS-2B and LO2 cells. The MTT assay with 3-(4,5-dimethylthiazole-2yl)-2,5-diphenyltetrazolium bromide (5 mg/ml) was performed as previously described ([Ng et al., 2022]). Briefly, 4 × 10^3 cells per well were seeded in 96-well plates before drug treatment. After overnight cell culture, the cells were exposed to different concentrations of selected compounds (0.19–100 μM) for 72 h. Cells without drug treatment were used as control. Next, 10 μl of the MTT solution was added to each well and incubated at 37°C for another 4 h. Solubilization buffer (100 μl) was then added (10 mM HCl in a solution of 10% of SDS) and incubated overnight. The absorbance A at 570 nm was measured on the next day. The percentage of cell viability was calculated using the following formula: Cell viability (%) = Atreated/Acontrol × 100. Dose response curves for all assays are given in the Supplementary Figures S3–S6.
(§3) Cytotoxicity was assessed for each of artemisinin, DHA and artemether, and the amino-artemisinins artemiside and artemisone, and celastrol against A549 human lung carcinoma, BEAS-2B non-tumorigenic human bronchial epithelium, HepG2 liver hepatocellular carcinoma and LO2 human normal hepatocytes using the MTT assay ([Ng et al., 2022]). Data are presented in Table 4, and dose response curves are given in the Supplementary Figures S3–S6.

[4] = system: LO2 human normal hepatocytes; assay: MTT cytotoxicity assay LO2; assay type: cell-based; settings: Hepatocyte, 72 h, read-out: IC50 LO2
Procedure: as §1, §2, §3

[5] = artemisone:celastrol drug ratio 20:80, Pf NF54
[6] = artemisone:celastrol drug ratio 40:60, Pf NF54
[7] = artemisone:celastrol drug ratio 60:40, Pf NF54
[8] = artemisone:celastrol drug ratio 80:20, Pf NF54

## C[C@H]1[C@H](N2CCS(=O)(=O)CC2)O[C@@H]2O[C@@]3(C)CC[C@H]4[C@H](C)CC[C@@H]1[C@@]24OO3 [Artemisone, artemisone]
[1]; NF54, asexual blood stage, SYBR Green I, 96 h, mean ± SEM, this study
  IC50: 2.32 ± 0.76 nM
[2]; [5]
  FIC: 0.12
[2]; [6]
  FIC: 0.24
[2]; [7]
  FIC: 0.39
[2]; [8]
  FIC: 0.69
[3]
  SI, selectivity index IC50 normal cell line/IC50 tumour cell line: <0.7
[3]; A549, MTT, 72 h, ± SD
  IC50: > 100000 nM
[4]; MTT, ± SD
  IC50: > 100000 nM

## CC1=C(O)C(=O)C=C2C1=CC=C1[C@@]2(C)CC[C@@]2(C)[C@@H]3C[C@](C)(C(=O)O)CC[C@]3(C)CC[C@]12C [Celastrol, celastrol]
[1]; NF54, 96 h
  IC50: 820 ± 190 nM
[2]; MB:celastrol drug ratio 40:60, Pf NF54
  FIC: 1.02
[2]; MB:celastrol drug ratio 60:40, Pf NF54
  FIC: 0.72
[2]; MB:celastrol drug ratio 80:20, Pf NF54
  FIC: 0.41
[2]; [5]
  FIC: 0.93
[2]; [6]
  FIC: 0.76
[2]; [7]
  FIC: 0.60
[2]; [8]
  FIC: 0.50
[3]
  SI, selectivity index IC50 normal cell line/IC50 tumour cell line: 0.16
[3]; A549, 72 h
  IC50: 2830 ± 120 nM
[4]
  IC50: 780 ± 200 nM
